Results from US5965434A, “Amphipathic PH sensitive compounds and delivery systems for delivering biologically active compounds” (priority 1994, dated 1999).

Legend:
[1] = pK by differential titration; conditions: 0.5% triton x-100
Procedure: 4-5 μmoles of compounds 1, 4, 5, 6 or 8 in a chloroform solution were dried in separate 1.5 ml microcentrifuge tubes under a vacuum overnight. The dried compounds were dissolved in […] of a 0.5% water solution of Triton X-100, pH 3.5. A 20 mM NaOH solution was added to each tube using a Dilutor 401 (Gilson Co.) and the pH was monitored using a Beckman .phi. 72 pH meter. The pKa's of the compounds were determined from differential titration curves. The transfections of the 3T3 cells were done with liposome preparations containing Dioleoylphosphatidylcholine as described above.

3T3 cells = experiment: Transfection of plasmid pBS.RSVLux into 3T3 cells, luciferase activity; type: cell-based, mouse; conditions: Table 13
Procedure: Liposomes were prepared by mixing chloroform solutions of the different lipids in microcentrifuge tubes with a 1.5 ml and removing the chloroform by vacuum to produce the dried lipid films. Tubes were placed under vacuum overnight to remove solvent traces. The amounts of cationic lipids in all cases were 1.34 mmol/ml with different amounts of other lipids as specified. One ml of sterile 10 mM HEPES buffer, pH 7.8, was added, and the tubes were sealed and vortexed for 1 min at room temperature and sonicated to obtain a clear emulsion.
The following cell lines were used: mouse 3T3 fibroblasts, COS cells (monkey kidney cell line transformed with the SV40 T ag), HeLa (human carcinoma cells), HepG2 (human hepatoma cell), 293 (monkey kidney cell line transformed with the adenovirus E1 gene ) were maintained in Dulbeco's Modified MEM media supplemented with 10% fetal calf serum. All cultures were maintained in a humidified atmosphere of 5% CO2 in air at 37° C. The cells were seeded in a 6-well plate (35 mm culture dishes) or a 12 well-plate (25 mm culture dishes) 24 h before the transfection at 70% confluence. Before transfection, the cells was washed once with Opti-MEM. In case of the 35 mm culture dishes, four μg of plasmid DNA (containing the luciferase or β-galactosidase reporter genes described below) in 0.75 ml of Opti-MEM was mixed with various amounts of liposomes in 0.75 ml of Opti-MEM. In case of the 25 mm culture dishes, one or two μg DNA in 400 μl of Opti-MEM was mixed with 400 μl of liposomes in 400 μl of Opti-MEM. The mixtures were incubated for 30 min at room temperature prior to being added to the cells in the culture dish. […]
The firefly luciferase and E. coli β-galactosidase reporter genes were used to determine the efficiency of DNA transfer quantitatively. […]
For determination of luciferase activity, cells were lysed by the addition of 100 ml for 25 mm plates and 200 μl for 35 mm plates of lysis buffer (0.1% Triton X-100, 0.1M K-phosphate, 1 mM DTT, pH 7.8). 20 μl of the cellular extract were analyzed for luciferase activity. […]

[2] = background; cited from earlier work
[3] = background; cited from earlier work; remark: listed apart in the source
[4] = Dioleoylphosphatidylcholine content 1:1

Compound	pKa [1]	Cytotoxicity [2]	also measured
CCCCCCCCCCCCCCCC(=O)OCC(CSc1nccn1C)OC(=O)CCCCCCCCCCCCCCC (centres unmarked) [Compound 4]	< 3.5		
CC(C)CCC[C@@H](C)[C@H]1CC[C@H]2[C@@H]3CC=C4C[C@@H](OC(=O)NCCCn5ccnc5)CC[C@]4(C)[C@H]3CC[C@]12C [Compound 6]	6		Relative Transfection Efficiency (Lipofectin = 1.0) (3T3 cells; [4]): 0.23
CCCCCCCCCCCCCCCCCCN [Stearylamine]		great cytotoxicity	
CCCCCCCCCCCCCCCC(=O)OCC(CNc1ccncc1)OC(=O)CCCCCCCCCCCCCCC (centres unmarked) [Compound 8]	5.3		Relative Transfection Efficiency (Lipofectin = 1.0) (3T3 cells; [4]): 7.68
CCCCCCCCCCCCCCCC[N+](C)(C)C.[Br-] [CTAB, cetyltrimethylammonium bromide]		significant cytotoxicity	
CCCCCCCC/C=C\CCCCCCCC(=O)OC[C@H](COC(=O)CCC[N+](C)(C)C)OC(=O)CCCCCCC/C=C\CCCCCCCC [DOTB, 1,2-dioleoyl-3-(4'-trimethylammonio)butanoyl-sn-glycerol]		no evidence of reduced cytotoxicity	
CCCCCCCC/C=C\CCCCCCCC(=O)OCC(C[N+](C)(C)C)OC(=O)CCCCCCC/C=C\CCCCCCCC (centres unmarked) [DOTAP, 1,2-Bis(oleoyloxy)-3-(4'-trimethylammonio)propane]		no evidence of reduced cytotoxicity	Inhibition of transfection by serum [3]: inhibits transfection to some extent
CCCCCCCC/C=C\CCCCCCCC(=O)OC[C@H](COC(=O)CCC(=O)OCC[N+](C)(C)C)OC(=O)CCCCCCC/C=C\CCCCCCCC [DOSC, 1,2-dioleoyl-3-succinyl-sn-glycerol choline ester]		no evidence of reduced cytotoxicity	
CC(C)CCC[C@@H](C)[C@H]1CC[C@H]2[C@@H]3CC=C4C[C@@H](OC(=O)CCC[N+](C)(C)C)CC[C@]4(C)[C@H]3CC[C@]12C [ChoTB, cholesteryl (4'-trimethylammonio)butanoate]		no evidence of reduced cytotoxicity	
CC(C)CCC[C@@H](C)[C@H]1CC[C@H]2[C@@H]3CC=C4C[C@@H](SSCCN)CC[C@]4(C)[C@H]3CC[C@]12C [Compound 5]	6.8		Relative Transfection Efficiency (Lipofectin = 1.0) (3T3 cells; Dioleoylphosphatidylcholine content 1:2): 0.84
